According to US10485235B2, “Aryloxypyrimidinyl ethers as herbicides” (FMC Corporation, priority 2015, dated 2019):

How the values were obtained:
Format in all cases: in vivo
[1] = test system: foxtail, giant (giant foxtail, Setaria faberii); assay: Test A preemergence, giant foxtail; conditions: Preemergence, 0 to 100 scale (0 no effect, 100 complete control)
Method in brief: (§1)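 Approximately 10-day greenhouse assay. Formulated chemical (non-phytotoxic solvent plus surfactant) applied preemergence to soil over seeds or postemergence to plants of 2 to 10 cm. Endpoint: visual percent control, 0–100.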

[2] = test system: galium (catchweed bedstraw, Galium aparine); assay: Test A postemergence, galium
Method in brief: as §1

[3] = test system: blackgrass (Alopecurus myosuroides); assay: Test A postemergence, blackgrass
Method in brief: as §1

[4] = test system: sedge, umbrella (small-flower umbrella sedge, Cyperus difformis); assay: Test B flooded paddy test, umbrella sedge; conditions: 250 g ai/ha, Flood; visual rating after 13 to 15 days; scale 0 to 100, 0 is no effect, 100 is complete control
Method in brief: (§2)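 Plants grown to 2-leaf stage, pots flooded to 3 cm above soil and compound applied directly to paddy water, depth maintained throughout. After 13-15 days in greenhouse, visual rating against untreated controls on 0-100 scale (0 no effect, 100 complete control).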

[5] = test system: kochia (Kochia scoparia); assay: Test A preemergence, kochia; conditions: Preemergence, 0 to 100 scale (0 no effect, 100 complete control)
Method in brief: as §1

[6] = test system: corn (Zea mays); assay: Test A postemergence, corn
Method in brief: as §1

[7] = test system: ragweed (common ragweed, Ambrosia elatior); assay: Test A postemergence, ragweed
Method in brief: as §1

[8] = test system: barnyardgrass (Echinochloa crus-galli); assay: Test A preemergence, barnyardgrass; conditions: Preemergence, 0 to 100 scale (0 no effect, 100 complete control)
Method in brief: as §1

[9] = test system: wheat (Triticum aestivum); assay: Test A postemergence, wheat
Method in brief: as §1

[10] = test system: ryegrass, Italian (Italian ryegrass, Lolium multiflorum); assay: Test A postemergence, Italian ryegrass
Method in brief: as §1

[11] = test system: barnyardgrass (Echinochloa crus-galli); assay: Test A postemergence, barnyardgrass
Method in brief: as §1

[12] = test system: rice (Oryza sativa); assay: Test B flooded paddy test, rice; conditions: 250 g ai/ha, Flood; visual rating after 13 to 15 days; scale 0 to 100, 0 is no effect, 100 is complete control
Method in brief: as §2

[13] = test system: barnyardgrass (Echinochloa crus-galli); assay: Test B flooded paddy test, barnyardgrass; conditions: 250 g ai/ha, Flood; visual rating after 13 to 15 days; scale 0 to 100, 0 is no effect, 100 is complete control
Method in brief: as §2

[14] = test system: foxtail, giant (giant foxtail, Setaria faberii); assay: Test A postemergence, giant foxtail
Method in brief: as §1

[15] = test system: ducksalad (Heteranthera limosa); assay: Test B flooded paddy test, ducksalad; conditions: 250 g ai/ha, Flood; visual rating after 13 to 15 days; scale 0 to 100, 0 is no effect, 100 is complete control
Method in brief: as §2

[16] = test system: pigweed (Amaranthus retroflexus); assay: Test A postemergence, pigweed
Method in brief: as §1

[17] = test system: kochia (Kochia scoparia); assay: Test A postemergence, kochia
Method in brief: as §1

[18] = test system: pigweed (Amaranthus retroflexus); assay: Test A preemergence, pigweed; conditions: Preemergence, 0 to 100 scale (0 no effect, 100 complete control)
Method in brief: as §1

[19] = test system: ragweed (common ragweed, Ambrosia elatior); assay: Test A preemergence, ragweed; conditions: Preemergence, 0 to 100 scale (0 no effect, 100 complete control)
Method in brief: as §1

[20] = test system: ryegrass, Italian (Italian ryegrass, Lolium multiflorum); assay: Test A preemergence, Italian ryegrass; conditions: Preemergence, 0 to 100 scale (0 no effect, 100 complete control)
Method in brief: as §1

[21] = 31 g ai/ha, postemergence, 0 to 100 scale, 0 is no effect, 100 is complete control, approximately 10 days
[22] = 125 g ai/ha, postemergence, 0 to 100 scale, 0 is no effect, 100 is complete control, approximately 10 days
[23] = 500 g ai/ha, postemergence, 0 to 100 scale, 0 is no effect, 100 is complete control, approximately 10 days
[24] = Postemergence, 31 g ai/ha, 0 to 100 scale (0 no effect, 100 complete control)

SMILES | Plant response rating, Foxtail, Giant ([1]; 125 g ai/ha) | Plant response rating, Galium [2, 22] | Plant response rating, Blackgrass [3, 22] | Plant response rating, Sedge, Umbrella [4] | Plant response rating, Kochia ([5]; 125 g ai/ha) | Plant response rating, Corn [6, 22] | Plant response rating, Ragweed [7, 22] | Plant response rating, Barnyardgrass ([8]; 125 g ai/ha) | Plant response rating, Wheat [9, 22] | Plant response rating, Ryegrass, Italian [10, 22] | Plant response rating, Barnyardgrass [11, 22] | Plant response rating, Rice [12] | Plant response rating, Barnyardgrass [13] | Plant response rating, Foxtail, Giant [14, 22] | Plant response rating, Ducksalad [15] | Plant response rating, Pigweed [16, 22] | Plant response rating, Kochia [17, 22] | Plant response rating, Pigweed ([18]; 125 g ai/ha) | Plant response rating, Ragweed ([19]; 125 g ai/ha) | Plant response rating, Ryegrass, Italian ([20]; 125 g ai/ha) | also measured
FC(F)(F)/C=C/COc1c(I)cccc1Oc1ncc(Cl)cn1 [Compound 61] | 80 | 50 | 0 | 95 | 0 | 30 | 0 | 20 | 0 | 0 | 50 | 25 | 20 | 30 | 100 | 90 | 90 | 70 | 0 | 0 | Plant response rating, Foxtail, Giant ([1]; 31 g ai/ha): 0; Plant response rating, Galium [2, 21]: 20; Plant response rating, Blackgrass [3, 21]: 0; Plant response rating, Kochia ([5]; 31 g ai/ha): 0; Plant response rating, Corn [6, 21]: 10; Plant response rating, Ragweed [7, 21]: 0; Plant response rating, Barnyardgrass ([8]; 31 g ai/ha): 0; Plant response rating, Wheat [9, 21]: 0; Plant response rating, Ryegrass, Italian [10, 21]: 0; Plant response rating, Barnyardgrass [11, 21]: 0; Plant response rating, Foxtail, Giant [14, 21]: 0; Plant response rating, Pigweed [16, 21]: 80; Plant response rating, Kochia [17, 21]: 40; Plant response rating, Pigweed ([18]; 31 g ai/ha): 0; Plant response rating, Ragweed ([19]; 31 g ai/ha): 0; Plant response rating, Ryegrass, Italian ([20]; 31 g ai/ha): 0
N#Cc1cccc(Oc2ncc(Cl)cn2)c1OCC(F)F [Compound 16] | 100 | 30 | 10 | 0 | 100 | 20 | 10 | 80 | 0 | 0 | 20 | 0 | 0 | 30 | 30 | 90 | 100 | 100 | 60 | 10 | Plant response rating, Foxtail, Giant ([1]; 500 g ai/ha): 100; Plant response rating, Galium [2, 23]: 90; Plant response rating, Blackgrass [3, 23]: 90; Plant response rating, Kochia ([5]; 500 g ai/ha): 100; Plant response rating, Corn [6, 23]: 70; Plant response rating, Ragweed [7, 23]: 60; Plant response rating, Barnyardgrass ([8]; 500 g ai/ha): 100; Plant response rating, Wheat [9, 23]: 20; Plant response rating, Ryegrass, Italian [10, 23]: 80; Plant response rating, Barnyardgrass [11, 23]: 90; Plant response rating, Foxtail, Giant [14, 23]: 100; Plant response rating, Pigweed [16, 23]: 100; Plant response rating, Kochia [17, 23]: 100; Plant response rating, Pigweed ([18]; 500 g ai/ha): 100; Plant response rating, Ragweed ([19]; 500 g ai/ha): 90; Plant response rating, Ryegrass, Italian ([20]; 500 g ai/ha): 40
Fc1cccc(Oc2ncc(Cl)cn2)c1OCCCC(F)(F)F [Compound 27] | 80 | 30 | 30 | 70 | 70 | 0 | 0 | 90 | 0 | 0 | 50 | 0 | 0 | 20 | 90 | 50 | 80 | 90 | 0 | 40 | Plant response rating, Foxtail, Giant ([1]; 500 g ai/ha): 100; Plant response rating, Galium [2, 23]: 90; Plant response rating, Blackgrass [3, 23]: 60; Plant response rating, Kochia ([5]; 500 g ai/ha): 100; Plant response rating, Corn [6, 23]: 10; Plant response rating, Ragweed [7, 23]: 10; Plant response rating, Barnyardgrass ([8]; 500 g ai/ha): 100; Plant response rating, Wheat [9, 23]: 10; Plant response rating, Ryegrass, Italian [10, 23]: 30; Plant response rating, Barnyardgrass [11, 23]: 80; Plant response rating, Foxtail, Giant [14, 23]: 80; Plant response rating, Pigweed [16, 23]: 60; Plant response rating, Kochia [17, 23]: 100; Plant response rating, Pigweed ([18]; 500 g ai/ha): 100; Plant response rating, Ragweed ([19]; 500 g ai/ha): 20; Plant response rating, Ryegrass, Italian ([20]; 500 g ai/ha): 90
Cl/C=C/COc1c(I)cccc1Oc1ncc(Cl)cn1 [Compound 68] | 100 | 60 | 60 | 100 | 30 | 30 | 20 | 70 | 0 | 30 | 100 | 10 | 40 | 80 | 100 | 100 | 100 | 100 | 0 | 20 | Plant response rating, Foxtail, Giant ([1]; 31 g ai/ha): 70; Plant response rating, Galium [2, 24]: 50; Plant response rating, Blackgrass [3, 24]: 20; Plant response rating, Kochia ([5]; 31 g ai/ha): 0; Plant response rating, Corn [6, 24]: 20; Plant response rating, Ragweed [7, 24]: 0; Plant response rating, Barnyardgrass ([8]; 31 g ai/ha): 70; Plant response rating, Wheat [9, 24]: 0; Plant response rating, Ryegrass, Italian [10, 24]: 0; Plant response rating, Barnyardgrass [11, 24]: 60; Plant response rating, Foxtail, Giant [14, 24]: 30; Plant response rating, Pigweed [16, 24]: 80; Plant response rating, Kochia [17, 24]: 90; Plant response rating, Pigweed ([18]; 31 g ai/ha): 0; Plant response rating, Ragweed ([19]; 31 g ai/ha): 0; Plant response rating, Ryegrass, Italian ([20]; 31 g ai/ha): 0
N#Cc1cccc(Oc2ncc(F)cn2)c1OC/C=C/C(F)(F)F [Compound 39] | 100 | 60 | 60 | 100 | 100 | 50 | 10 | 100 | 20 | 50 | 40 | 15 | 30 | 90 | 65 | 100 | 90 | 100 | 10 | 20 | Plant response rating, Foxtail, Giant ([1]; 31 g ai/ha): 90; Plant response rating, Galium [2, 21]: 20; Plant response rating, Blackgrass [3, 21]: 10; Plant response rating, Kochia ([5]; 31 g ai/ha): 60; Plant response rating, Corn [6, 21]: 20; Plant response rating, Ragweed [7, 21]: 0; Plant response rating, Barnyardgrass ([8]; 31 g ai/ha): 50; Plant response rating, Wheat [9, 21]: 0; Plant response rating, Ryegrass, Italian [10, 21]: 0; Plant response rating, Barnyardgrass [11, 21]: 20; Plant response rating, Foxtail, Giant [14, 21]: 20; Plant response rating, Pigweed [16, 21]: 90; Plant response rating, Kochia [17, 21]: 90; Plant response rating, Pigweed ([18]; 31 g ai/ha): 100; Plant response rating, Ragweed ([19]; 31 g ai/ha): 0; Plant response rating, Ryegrass, Italian ([20]; 31 g ai/ha): 0
